Experimental data reported in publication PMC9128668 (Nature, 2021).

Molecular target: T1, BT1622^3S-Gal/GalNAc (Bacteroides thetaiotaomicron, UniProt Q8A7A3)
T1 sequence (Q8A7A3 21-500): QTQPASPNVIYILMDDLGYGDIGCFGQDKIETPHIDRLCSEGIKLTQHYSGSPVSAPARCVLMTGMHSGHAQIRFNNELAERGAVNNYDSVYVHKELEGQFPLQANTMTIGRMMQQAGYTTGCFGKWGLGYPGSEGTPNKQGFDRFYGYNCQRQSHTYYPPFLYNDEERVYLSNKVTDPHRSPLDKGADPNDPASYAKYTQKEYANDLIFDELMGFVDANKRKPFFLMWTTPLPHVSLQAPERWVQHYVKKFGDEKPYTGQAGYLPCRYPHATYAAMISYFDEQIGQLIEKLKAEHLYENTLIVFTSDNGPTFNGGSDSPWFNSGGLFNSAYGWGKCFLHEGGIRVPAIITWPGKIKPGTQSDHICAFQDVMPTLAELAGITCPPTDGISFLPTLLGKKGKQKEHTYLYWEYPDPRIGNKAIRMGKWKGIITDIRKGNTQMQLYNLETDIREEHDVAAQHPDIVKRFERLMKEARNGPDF
Test: X-ray crystallography
Assay type: binding
Conditions: active site; Ca2+; inactive Ser form; 100 mM ligand

SMILES: CC(=O)N[C@H]1C(O)O[C@H](CO)[C@H](O)[C@@H]1O (stereo partly shown) [GalNAc]
- X-ray crystallography: BT1622^3S-Gal/GalNAc in complex with GalNAc
